From patent publication US20260007758A1, “SO[…]-2 RECEPTOR (SST2R) NON-PEPTIDE DRUG CONJUGATES AND USES THEREOF” (Crinetics Pharmaceuticals, Inc., priority 2024, published 2026)

Legend:
Format in all cases: cell-based
[1] = target: T1, human somatostatin receptor subtype 2 (Homo sapiens, UniProt P30874); assay: Functional assay for SSTR2 agonists (HTRF cAMP); conditions: CHO-K1 cells stably expressing human SST2; NKH477-stimulated cAMP; 20 min at 37 C; read-out: hSST2 cAMP Avg EC50
T1 construct: expressed in transfected cells
T1 sequence (P30874 whole entry): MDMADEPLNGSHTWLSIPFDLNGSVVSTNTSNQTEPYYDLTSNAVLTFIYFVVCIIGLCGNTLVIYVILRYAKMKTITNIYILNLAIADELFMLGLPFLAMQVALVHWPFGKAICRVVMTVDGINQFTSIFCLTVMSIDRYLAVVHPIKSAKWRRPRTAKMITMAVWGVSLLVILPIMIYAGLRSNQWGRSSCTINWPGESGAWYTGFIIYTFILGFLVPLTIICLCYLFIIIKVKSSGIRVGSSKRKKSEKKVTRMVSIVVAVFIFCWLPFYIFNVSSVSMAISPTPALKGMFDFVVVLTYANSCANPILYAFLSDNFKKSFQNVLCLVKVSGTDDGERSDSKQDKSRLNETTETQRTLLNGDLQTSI
Method in brief: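 Agonist activity read as fall in intracellular cAMP: HTRF 665/620 nm ratio regressed to a cAMP standard curve, EC50 fitted. Stable human SSTR2 CHO-K1 cells exposed 20 min at 37 °C to compound, final concentrations typically 0-10,000 nM.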

SST2 = target: T2, SST2 (Homo sapiens, UniProt P30874); assay: PathHunter CHO-K1 SST2 Internalization Assay; conditions: PathHunter CHO-K1 SST2 cells; 90 min at 37 C; luminescence; read-out: Internalization EC50
T2 construct: host or cells: PathHunter CHO-K1 SST2 cells
T2 sequence (P30874 whole entry): as above
Method in brief: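 Four-parameter nonlinear fits of background-corrected luminescence (duplicate means) gave IC50s. NDCs were serially diluted 1:3 over 11 points from a 10 uM final top concentration and incubated 90 min at 37 C with human SST2 CHO-K1 cells plated 48 h earlier at 2500/well. Beta-Glo read-out developed 60 min at RT.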

[2] = tested on: NCI-H524 human small cell lung cancer cells; assay: H524 assay: inhibition of cell proliferation (CellTiter Glo); conditions: 2 h treatment, washout, additional 70 h incubation
Method in brief: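 Proliferation was measured by CellTiter Glo 70 h after a washout that followed a 2 h pulse of NDC. Doses were an 11-point, two-fold dilution series from 1 uM. IC50 was fitted with a four-parameter model to luminescence-based % inhibition relative to control cells.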

| SMILES | EC50 [1] | EC50 (SST2) | EC50 [2] |
| --- | --- | --- | --- |
| CC[C@H](C)[C@@H]([C@@H](CC(=O)N1CCC[C@H]1[C@H](OC)[C@@H](C)C(=O)N[C@H](C)[C@@H](O)c1ccccc1)OC)N(C)C(=O)[C@@H](NC(=O)[C@H](C(C)C)N(C)C(=O)OCc1ccc(NC(=O)[C@H](CCCNC(N)=O)NC(=O)[C@@H](NC(=O)CCOCCC(=O)NCCNc2ncc(-c3cc(C)cc(F)c3)c(N3CCC(N)CC3)c2-c2nc3ccc(Cl)cc3[nH]2)C(C)C)c(O[C@@H]2O[C@H](C(=O)N(C)CCOCCC(=O)O)[C@@H](O)[C@H](O)[C@H]2O)c1)C(C)C [Compound 231] | 0.33 nM | 12 nM | 49 nM |
| CC[C@H](C)[C@@H]([C@@H](CC(=O)N1CCC[C@H]1[C@H](OC)[C@@H](C)C(=O)N[C@H](C)[C@@H](O)c1ccccc1)OC)N(C)C(=O)[C@@H](NC(=O)C(C(C)C)N(C)C(=O)OCc1ccc(NC(=O)[C@H](CCCNC(N)=O)NC(=O)[C@@H](NC(=O)CCOCCC(=O)NCCNc2ncc(-c3cc(C)cc(F)c3)c(N3CCC(N)CC3)c2-c2nc3ccc(Cl)cc3[nH]2)C(C)C)c(O[C@@H]2O[C@H](C(=O)N3CC(N)C3)[C@@H](O)[C@H](O)[C@H]2O)c1)C(C)C (stereo partly drawn) [Compound 232] | 0.15 nM | 5.2 nM | 5 nM |
| CC[C@H](C)[C@@H]([C@@H](CC(=O)N1CCC[C@H]1[C@H](OC)[C@@H](C)C(=O)N[C@H](C)[C@@H](O)c1ccccc1)OC)N(C)C(=O)[C@@H](NC(=O)[C@H](C(C)C)N(C)C(=O)OCc1ccc(NC(=O)[C@H](CCCNC(N)=O)NC(=O)[C@@H](NC(=O)CCOCCC(=O)NCCNc2ncc(-c3cc(C)cc(F)c3)c(N3CCC(N)CC3)c2-c2nc3ccc(Cl)cc3[nH]2)C(C)C)c(O[C@@H]2O[C@H](C(=O)NCCNC(=O)CCCCCO[PH](=O)OC3CCC(c4ccccc4)(c4ccccc4)CC3)[C@@H](O)[C@H](O)[C@H]2O)c1)C(C)C (stereo partly drawn) [Compound 233] | 1 nM | 18 nM | 500 nM |
| CC[C@H](C)[C@@H]([C@@H](CC(=O)N1CCC[C@H]1[C@H](OC)[C@@H](C)C(=O)N[C@H](C)[C@@H](O)c1ccccc1)OC)N(C)C(=O)[C@@H](NC(=O)[C@H](C(C)C)N(C)C(=O)OCc1ccc(NC(=O)[C@H](CCCNC(N)=O)NC(=O)[C@@H](NC(=O)CCOCCC(=O)NCCNc2ncc(-c3cc(C)cc(F)c3)c(N3CCC(N)CC3)c2-c2nc3ccc(Cl)cc3[nH]2)C(C)C)c(O[C@@H]2O[C@H](C(=O)NCC(=O)NCCCCCCO[PH](=O)OC3CCC(c4ccccc4)(c4ccccc4)CC3)[C@@H](O)[C@H](O)[C@H]2O)c1)C(C)C (stereo partly drawn) [Compound 234] | 0.55 nM | 6.6 nM | 140 nM |
| CC[C@H](C)[C@@H]([C@@H](CC(=O)N1CCC[C@H]1[C@H](OC)[C@@H](C)C(=O)N[C@H](C)[C@@H](O)c1ccccc1)OC)N(C)C(=O)[C@@H](NC(=O)C(C(C)C)N(C)C(=O)OCc1ccc(NC(=O)[C@H](CCCNC(N)=O)NC(=O)[C@@H](NC(=O)CCOCCC(=O)NCCNc2ncc(-c3cc(C)cc(F)c3)c(N3CCC(N)CC3)c2-c2nc3ccc(Cl)cc3[nH]2)C(C)C)c(O[C@@H]2O[C@H](C(=O)N3CCC(C(=O)O)CC3)[C@@H](O)[C@H](O)[C@H]2O)c1)C(C)C (stereo partly drawn) [Compound 235] | 0.11 nM | 4.4 nM | 14 nM |
| CC[C@H](C)[C@@H]([C@@H](CC(=O)N1CCC[C@H]1[C@H](OC)[C@@H](C)C(=O)N[C@H](C)[C@@H](O)c1ccccc1)OC)N(C)C(=O)[C@@H](NC(=O)[C@H](C(C)C)N(C)C(=O)OCc1ccc(NC(=O)[C@H](CCCNC(N)=O)NC(=O)[C@@H](NC(=O)CCOCCC(=O)NCCNc2ncc(-c3cc(C)cc(F)c3)c(N3CCC(N)CC3)c2-c2nc3ccc(Cl)cc3[nH]2)C(C)C)c(O[C@H]2[C@H](O)[C@@H](O)[C@H](O)[C@@H](C(=O)N(C)CC(=O)N(C)CC(=O)N(C)CC(=O)O)[C@H]2O)c1)C(C)C [Compound 236] | 0.14 nM | 5.1 nM | 9.9 nM |
| CC[C@H](C)[C@@H]([C@@H](CC(=O)N1CCC[C@H]1[C@H](OC)[C@@H](C)C(=O)N[C@H](C)[C@@H](O)c1ccccc1)OC)N(C)C(=O)[C@@H](NC(=O)[C@H](C(C)C)N(C)C(=O)OCc1ccc(NC(=O)[C@H](CCCNC(N)=O)NC(=O)[C@@H](NC(=O)c2cn(CCOCCC(=O)NCCNc3ncc(-c4cc(C)cc(F)c4)c(N4CCC(N)CC4)c3-c3nc4cc(Cl)ccc4[nH]3)nn2)C(C)C)c(O[C@@H]2O[C@H](C(=O)N3CCNCC3)[C@@H](O)[C@H](O)[C@H]2O)c1)C(C)C [Compound 237] | 0.15 nM | 8.4 nM | 8.2 nM |
| CC[C@H](C)[C@@H]([C@@H](CC(=O)N1CCC[C@H]1[C@H](OC)[C@@H](C)C(=O)N[C@H](C)[C@@H](O)c1ccccc1)OC)N(C)C(=O)[C@@H](NC(=O)[C@H](C(C)C)N(C)C(=O)OCc1ccc(NC(=O)[C@H](CCCNC(N)=O)NC(=O)[C@@H](NC(=O)Cn2cc(CCOCCC(=O)NCCNc3ncc(-c4cc(C)cc(F)c4)c(N4CCC(N)CC4)c3-c3nc4cc(Cl)ccc4[nH]3)nn2)C(C)C)c(O[C@@H]2O[C@H](C(=O)N3CCNCC3)[C@@H](O)[C@H](O)[C@H]2O)c1)C(C)C [Compound 238] | 0.12 nM | 4.7 nM | 2.9 nM |
| CC[C@@H](C)[C@H]([C@H](CC(=O)N1CCCC1[C@@H](OC)[C@H](C)C(=O)N[C@@H](C)[C@H](O)c1ccccc1)OC)N(C)C(=O)[C@H](NC(=O)[C@@H](C(C)C)N(C)C(=O)OCc1ccc(NC(=O)[C@@H](C)NC(=O)[C@H](NC(=O)[C@@H](CCCO)NC(=O)CCOCCC(=O)NCCNc2ncc(-c3cc(C)cc(F)c3)c(N3CCC(N)CC3)c2-c2nc3ccc(Cl)cc3[nH]2)C(C)C)c(O[C@H]2O[C@@H](C(=O)O)[C@H](O)[C@@H](O)[C@@H]2O)c1)C(C)C (stereo partly drawn) [Compound 239] | 0.16 nM | 4.9 nM | 12 nM |
| CC[C@@H](C)[C@H]([C@H](CC(=O)N1CCCC1[C@@H](OC)[C@H](C)C(=O)N[C@@H](C)[C@H](O)c1ccccc1)OC)N(C)C(=O)[C@H](NC(=O)[C@@H](C(C)C)N(C)C(=O)OCc1ccc(NC(=O)[C@H](C)NC(=O)[C@H](NC(=O)CCOCCC(=O)NCCNc2ncc(-c3cc(C)cc(F)c3)c(N3CCC(N)CC3)c2-c2nc3ccc(Cl)cc3[nH]2)C(C)C)c(O[C@H]2O[C@@H](C(=O)O)[C@H](O)[C@@H](O)[C@@H]2O)c1)C(C)C (stereo partly drawn) [Compound 240] | 0.12 nM | 6 nM | 3100 nM |
| CC[C@H](C)[C@@H]([C@@H](CC(=O)N1CCC[C@H]1[C@H](OC)[C@@H](C)C(=O)N[C@H](C)[C@@H](O)c1ccccc1)OC)N(C)C(=O)[C@@H](NC(=O)[C@H](C(C)C)N(C)C(=O)OCc1ccc(NC(=O)[C@@H](CCCNC(N)=O)NC(=O)[C@@H](NC(=O)CCOCCC(=O)NCCNc2ncc(-c3cc(C)cc(F)c3)c(N3CCC(N)CC3)c2-c2nc3ccc(Cl)cc3[nH]2)C(C)C)c(O[C@H]2[C@H](O)[C@@H](O)[C@H](O)[C@@H](C(=O)O)[C@H]2O)c1)C(C)C [Compound 241] | 0.19 nM | 4.6 nM | 2900 nM |
| CC[C@H](C)[C@@H]([C@@H](CC(=O)N1CCC[C@H]1[C@H](OC)[C@@H](C)C(=O)N[C@H](C)[C@@H](O)c1ccccc1)OC)N(C)C(=O)[C@@H](NC(=O)[C@H](C(C)C)N(C)C(=O)OCc1ccc(NC(=O)C(CCCNC(N)=O)NC(=O)C2(NC(=O)CCOCCC(=O)NCCNc3ncc(-c4cc(C)cc(F)c4)c(N4CCC(N)CC4)c3-c3nc4ccc(Cl)cc4[nH]3)CCC2)c(O[C@@H]2O[C@H](C(=O)O)[C@@H](O)[C@H](O)[C@H]2O)c1)C(C)C (stereo partly drawn) [Compound 242] | 0.045 nM | 2.5 nM | 70 nM |
| CC[C@H](C)[C@@H]([C@@H](CC(=O)N1CCC[C@H]1[C@H](OC)[C@@H](C)C(=O)N[C@H](C)[C@@H](O)c1ccccc1)OC)N(C)C(=O)[C@@H](NC(=O)[C@H](C(C)C)N(C)C(=O)OCc1ccc(NC(=O)[C@H](CCCNC(N)=O)NC(=O)[C@@H](NC(=O)[C@H](Cc2c[nH]cn2)NC(=O)CCOCCC(=O)NCCNc2ncc(-c3cc(C)cc(F)c3)c(N3CCC(N)CC3)c2-c2nc3ccc(Cl)cc3[nH]2)C(C)C)c(O[C@@H]2C[C@H](C(=O)O)[C@@H](O)[C@H](O)[C@H]2O)c1)C(C)C [Compound 243] | 0.082 nM | 3.2 nM | 17 nM |
| CC[C@H](C)[C@@H]([C@@H](CC(=O)N1CCC[C@H]1[C@H](OC)[C@@H](C)C(=O)N[C@H](C)[C@@H](O)c1ccccc1)OC)N(C)C(=O)[C@@H](NC(=O)[C@H](C(C)C)N(C)C(=O)OCc1ccc(NC(=O)[C@H](CCCNC(N)=O)NC(=O)[C@@H](NC(=O)c2cc(NC(=O)CCOCCC(=O)N(C)CC(=O)NCCNc3ncc(-c4cc(C)cc(F)c4)c(N4CCC(N)CC4)c3-c3nc4ccc(Cl)cc4[nH]3)cc(C(=O)NC[C@@H](O)C(=O)O)c2)C(C)C)cc1)C(C)C [Compound 244] | 0.26 nM | 4 nM | 55 nM |
